Laboratory results: patent US20250051407A1, “De novo designed sequence-specific DNA binding proteins” (University of Washington, priority 2023, published 2025)
“Also recorded” adds a separate entry of the source.

How the values were obtained:
Format in all cases: binding
13 unique dsDNA targets = test: All-by-all yeast surface display screen of DBP design hits; conditions: for Target sequence preference: 13 unique dsDNA targets
Method: And an all-by-all screen of DBP design hits to 13 unique dsDNA targets was performed (FIG. 4, table 2). […] To try to understand these observed binding preferences, each tested DNA sequence was threaded onto each design complex model at all possible base pair alignments, the alternative complex models were relaxed with Rosetta™, and the model with the most favorable Rosetta™ ΔΔG was selected.
Saccharomyces cerevisiae EBY100 strain cultures were grown in C-Trp-Ura medium supplemented with 2% (w/v) glucose. For induction of expression, yeast cells were centrifuged at 6,000 g for 1 min and resuspended in SGCAA medium supplemented with 0.2% (w/v) glucose at the cell density of 1×10^7 cells per ml and induced at 30° C. for 16-24 h. Cells were washed with PBSF (PBS with 1% (w/v) BSA) and labeled with biotinylated targets using two labeling methods: with-avidity and without-avidity labeling. For the with-avidity method, the cells were incubated with biotinylated target, together with anti-c-Myc fluorescein isothiocyanate (FITC, Miltenyi Biotech) and streptavidin-phycoerythrin (SAPE, ThermoFisher). The concentration of SAPE in the with-avidity method was used at one-quarter of the concentration of the biotinylated targets. For the without-avidity method, the cells were first incubated with biotinylated targets, washed and secondarily labeled with SAPE and FITC.
(§1) For yeast display characterization of individual designs, including competition assays, DNA sequences encoding the proteins of interest were purchased as Integrated DNA Technologies (IDT) E-Blocks™, transformed into yeast cells, and incubated in 96 well culture plates. Labeling with biotinylated dsDNA targets and SAPE/FITC was performed in a 96 well plate format. For yeast display competition assays, labeling was performed without avidity using 1 μM biotinylated dsDNA duplex oligos and an excess of 8 μM non-biotinylated competitor dsDNA duplex oligos. […] Flow cytometry analysis was performed with an Attune NxT™ flow cytometer with autosampler. Flow cytometry data analysis was performed using custom python code and the CytoFlow™ python package. For each individual sample, gating of the expression population was performed using the CytoFlow™ Gaussian Mixture Model and the ratio of SAPE channel intensity to FITC channel intensity (binding signal/expression signal) was calculated for all gated expression events of the sample.

dsDNA target = test: Site saturation mutagenesis (SSM) library sorting, protein-side footprinting; conditions: for Tolerance of positions to substitution: interface, core and surface positions
Method: As disclosed in the examples that follow, the contributions of each amino acid to binding for additional designs, high-resolution footprints of the binding surface as generated was assessed by sorting site saturation mutagenesis libraries (SSMs) in which every residue was substituted with each of the 20 amino acids one at a time for DBPs 1, 6, and 35. Permissible substitutions for many of the polypeptides of the disclosure are provided in columns 2 and 3 Tables 4-19.
Thus, in some embodiments, substitutions relative to the reference sequence are selected from residues listed in columns 2 or 3 of one of Tables 4-19. In other embodiments, substitutions relative to the reference sequence are selected from residues listed in column 2 of one of Tables 4-19. Column 2 lists the “best” substitutions, which retain or improve DNA target binding activity relative to the reference sequence. Column 3 lists “permissible” substitutions, which retain binding to the DNA target sequence.
To assess the contributions of each amino acid to binding for additional designs, high-resolution footprints of the binding surface as generated by sorting site saturation mutagenesis libraries (SSMs) in which every residue was substituted with each of the 20 amino acids one at a time for DBPs 1, 6, and 35. […] In a small number of cases, substitutions led to notable improvements in binding affinity.
Cell sorting of labeled yeast pools was performed using a Sony SH800S cell sorter. Libraries of designs were sorted using the with-avidity method for the first few rounds of screening to exclude weak binder candidates, followed by several without-avidity sorts with different concentrations of targets. For SSM libraries, two rounds of with-avidity sorts were applied and in the third round of screening the libraries were titrated with a series of decreasing concentrations of targets to enrich mutants with beneficial mutations.
The Pear program was used to assemble the fastq files from the deep sequencing runs. Translated, assembled reads were matched against the ordered design to determine the number of counts for each design in each pool. In each sequenced pool, binder enrichment was calculated by determining the percent of reads for each binder design in the pool and dividing this number by the same value in the naive expression sort pool. […] For SSM libraries, apparent SC50 was estimated using the fitting procedure described in Longxing et al. (15)

[1] = test system: biotinylated target dsDNA with non-biotinylated competitor dsDNA; test: Yeast display competition assay with base-substituted competitor dsDNA; conditions: all possible base mutations at each position of the competitor oligo
Text: We used a yeast display competition assay to characterize the DNA binding site specificity of a subset of the designs (FIG. 1A-E, left; FIG. 5). Addition of non-biotinylated competitor dsDNA to biotinylated target sequence reduced binding signal by flow cytometry (FIG. 1A-E, middle). […] For example, in DBP6 (FIG. 1A) R31 and R36 in the design model form bidentate hydrogen bonds with the guanines of base pair positions G12 and C9, respectively, while T32 forms a hydrogen bond with C10.
as §1

“DBP1: designed DNA-binding protein, SEQ ID NO: 1, DNA target A (TARELEVAALIAQGRSNREIAEELNISERTVERYVRRILRKLGLRNRAQIAAWVIRRS)” was tested, and the Target sequence preference (13 unique dsDNA targets) was “strong preference for 2 or 3 of the sequence targets”, the “Tolerance of positions to substitution” value (dsDNA target) was “most positions at the interface and the core were largely conserved while positions at the surface were more tolerant of substitutions” and the “DNA binding site specificity” value [1] was “specificities consistent with the designed sidechain-base interactions”.

With “DBP6: designed DNA-binding protein, SEQ ID NO: 4, DNA target B (DWAARAAAARRLRKERGLTQAELGELAGVSRTTVSRIELGRPDVSQASVDAVLAVL)” the “Number of the 13 tested DNA target sequences preferentially bound” value (13 unique dsDNA targets; 1 μM dsDNA with avidity, including designed target sequence) was “less than 3”, the Target sequence preference (13 unique dsDNA targets) was “strong preference for only their designed target sequence” and the “Binding specificity versus design models” value (13 unique dsDNA targets; all-by-all screen with Rosetta-predicted motifs) was “bound with specificity closely consistent with the design models”. The Substitutions improving binding (dsDNA target; every residue substituted with each of the 20 amino acids) was “relatively few mutations at interface positions improved binding with the exceptions of L39, D43, and 548”, the “Tolerance of positions to substitution” value (dsDNA target) was “most positions at the interface and the core were largely conserved while positions at the surface were more tolerant of substitutions” and the “DNA binding site specificity” value [1] was “specificity for a 6 nucleotide stretch (TGCACA) with peripheral dependence on T8 and A13; also recorded: specificities consistent with the designed sidechain-base interactions; also recorded: specificity for the GCxG motif”.
